Type in all cases: in vivo
Data set [1] concerns Cabbage Looper (CL) (Trichoplusia ni). The experiment in a line: Bioassay on Cabbage Looper (CL), 128-well diet tray assay. The note with it: 168 h, Table ABC, 50 μg/cm^2 on artificial diet, second instar larvae, five to seven days, 25° C., read-out: CL % Control (or Mortality) rating. On the procedure:
(§1) Certain molecules disclosed in this document were tested against BAW and CL using procedures described in the following examples. In the reporting of the results, the “BAW & CL Rating Table” was used (See Table Section).
Bioassays on CL were conducted using a 128-well diet tray assay. One to five second instar CL larvae were placed in each well (3 mL) of the diet tray that had been previously filled with 1 mL of artificial diet to which 50 μg/cm^2 of the test compound (dissolved in 50 μL of 90:10 acetone-water mixture) had been applied (to each of eight wells) and then allowed to dry. Trays were covered with a clear self-adhesive cover, and held at 25° C., 14:10 light-dark for five to seven days. Percent mortality was recorded for the larvae in each well; activity in the eight wells was then averaged. The results are indicated in the table entitled “Table ABC: Assay Results” and “Table ABCD: Assay Results” (See Table Section).

Data set [2] relates to Yellow Fever Mosquito (YFM) (Aedes aegypti). The experiment in a line: Bioassay on Yellow Fever Mosquito (YFM) larvae, 96-well plate. Conditions: Table ABC; about 1 day-old larvae, master plate 4000 ppm in DMSO diluted, scored on mortality after 3 days. On the procedure:
Certain molecules disclosed in this document were tested against YFM using procedures described in the following paragraph. In the reporting of the results, the “GPA & YFM Rating Table” was used (See Table Section).
Master plates containing 400 μg of a molecule dissolved in 100 μL of dimethyl sulfoxide (DMSO) (equivalent to a 4000 ppm solution) are used. A master plate of assembled molecules contains 15 μL per well. To this plate, 135 μL of a 90:10 water:acetone mixture is added to each well. A robot (Biomek® NXP Laboratory Automation Workstation) is programmed to dispense 15 μL aspirations from the master plate into an empty 96-well shallow plate (“daughter” plate). There are 6 reps (“daughter” plates) created per master. The created daughter plates are then immediately infested with YFM larvae.
The day before plates are to be treated, mosquito eggs are placed in Millipore water containing liver powder to begin hatching (4 g. into 400 mL). After the daughter plates are created using the robot, they are infested with 220 μL of the liver powder/larval mosquito mixture (about 1 day-old larvae). After plates are infested with mosquito larvae, a non-evaporative lid is used to cover the plate to reduce drying. Plates are held at room temperature for 3 days prior to grading. After 3 days, each well is observed and scored based on mortality.

Data set [3] deals with Beet Armyworm (BAW) (Spodoptera exigua). Description: Bioassay on Beet Armyworm (BAW), 128-well diet tray assay. The note with it: 168 h, Table ABC, 50 μg/cm^2 on artificial diet, second instar larvae, five to seven days, 25° C., read-out: BAW % Control (or Mortality) rating. The method, then:
as §1
Bioassays on BAW were conducted using a 128-well diet tray assay. one to five second instar BAW larvae were placed in each well (3 mL) of the diet tray that had been previously filled with 1 mL of artificial diet to which 50 μg/cm^2 of the test compound (dissolved in 50 μL of 90:10 acetone-water mixture) had been applied (to each of eight wells) and then allowed to dry. Trays were covered with a clear self-adhesive cover, and held at 25° C., 14:10 light-dark for five to seven days. Percent mortality was recorded for the larvae in each well; activity in the eight wells was then averaged. The results are indicated in the tables entitled “Table ABC: Assay Results” and “Table ABCD: Assay Results” (See Table Section).

Each structure is given as a SMILES string.

On to `CCc1cccc(C)c1N1C(=O)CS/C1=N\C(=O)NC1Cc2ccc(-c3ncn(-c4ccc(OC(F)(F)F)cc4)n3)cc2C1` (stereo not drawn) [F10, (Z)-1-(3-(2-Ethyl-6-methylphenyl)-4-oxothiazolidin-2-ylidene)-3-(5-(1-(4-(trifluoromethoxy)phenyl)-1H-1,2,4-triazol-3-yl)-2,3-dihydro-1H-inden-2-yl)urea], for which the mortality at 50 µg/cm2 in data set [1] and in data set [3] was 50 to 100% each time. In addition, in data set [2], the “YFM % Control (or Mortality) rating” value is reported as “A (80-100)”.

Turning to `O=C(NC(=S)Nc1ccccc1C1CC1)NC1Cc2ccc(-c3ncn(-c4ccc(OC(F)(F)F)cc4)n3)cc2C1` (stereo not drawn) [F11, 1-[(2-Cyclopropylphenyl)carbamothioyl]-3-[5-[1-[4-(trifluoromethoxy)phenyl]-1,2,4-triazol-3-yl]indan-2-yl]urea], the mortality at 50 µg/cm2 in data set [1] and in data set [3] was 50 to 100% in each case. Moreover, in data set [2], the “YFM % Control (or Mortality) rating” value is given as “A (80-100)”.

Take `CC(C)c1ccccc1N1C(=O)CS/C1=N\C(=O)NC1Cc2ccc(-c3ncn(-c4ccc(OC(F)(F)F)cc4)n3)cc2C1` (stereo not drawn) [F16, (Z)-1-(3-(2-Isopropylphenyl)-4-oxothiazolidin-2-ylidene)-3-(5-(1-(4-(trifluoromethoxy)phenyl)-1H-1,2,4-triazol-3-yl)-2,3-dihydro-1H-inden-2-yl)urea]: the mortality at 50 µg/cm2 in data set [1] and in data set [3] was 50 to 100% each time. Also, the “YFM % Control (or Mortality) rating” value in data set [2] is “A (80-100)”.

In the case of `Cc1ccc(C(C)C)c(N2C(=O)CS/C2=N\C(=O)NC2CCc3cc(-c4ncn(-c5ccc(OC(F)(F)F)cc5)n4)ccc3C2)c1` (stereo not drawn) [F17, (Z)-1-(3-(2-isopropyl-5-methylphenyl)-4-oxothiazolidin-2-ylidene)-3-(6-(1-(4-(trifluoromethoxy)phenyl)-1H-1,2,4-triazol-3-yl)-1,2,3,4-tetrahydronaphthalen-2-yl)urea], the mortality at 50 µg/cm2 in data set [1] and in data set [3] was 50 to 100% in each case. In data set [2], the “YFM % Control (or Mortality) rating” value is reported as “A (80-100)”.

As for `Cc1cs/c(=N\C(=O)NC2Cc3ccc(-c4ncn(-c5ccc(OC(F)(F)F)cc5)n4)cc3C2)n1-c1ccccc1C(C)C` (stereo not drawn) [FA1, (Z)-1-(3-(2-isopropylphenyl)-4-methylthiazol-2(3H)-ylidene)-3-(5-(1-(4-(trifluoromethoxy)phenyl)-1H-1,2,4-triazol-3-yl)-2,3-dihydro-1H-inden-2-yl)urea], the mortality at 50 µg/cm2 in data set [1] and in data set [3] was 50 to 100% each time. Also, in data set [2], the “YFM % Control (or Mortality) rating” value was “A (80-100)”.

Turning to `CC(C)c1ccccc1N1/C(=N/C(=O)NC2Cc3ccc(-c4ncn(-c5ccc(OC(F)(F)F)cc5)n4)cc3C2)SCC1C` (stereo not drawn) [FA3, (Z)-1-(3-(2-isopropylphenyl)-4-methylthiazolidin-2-ylidene)-3-(5-(1-(4-(trifluoromethoxy)phenyl)-1H-1,2,4-triazol-3-yl)-2,3-dihydro-1H-inden-2-yl)urea], the mortality at 50 µg/cm2 in data set [1] is 0%; in data set [3], 50 to 100%. In addition, the “YFM % Control (or Mortality) rating” value in data set [2] is recorded as “B (More than 0-Less than 80)”.

Consider `CC1CS/C(=N\C(=O)NC2Cc3ccc(-c4ncn(-c5ccc(OC(F)(F)F)cc5)n4)cc3C2)N(c2ccccc2C(C)C)C1` (stereo not drawn) [FA5, (Z)-1-(3-(2-Isopropylphenyl)-5-methyl-1,3-thiazinan-2-ylidene)-3-(5-(1-(4-(trifluoromethoxy)phenyl)-1H-1,2,4-triazol-3-yl)-2,3-dihydro-1H-inden-2-yl)urea], for which the mortality at 50 µg/cm2 in data set [1] and in data set [3] was 50 to 100% in each case. Moreover, in data set [2], the “YFM % Control (or Mortality) rating” value is reported as “A (80-100)”.

For the compound `CC(C)c1ccccc1N1/C(=N/C(=O)NC2Cc3ccc(-c4ncn(-c5ccc(OC(F)(F)F)cc5)n4)cc3C2)SCCC1C` (stereo not drawn) [FA6, (Z)-1-(3-(2-Isopropylphenyl)-4-methyl-1,3-thiazinan-2-ylidene)-3-(5-(1-(4-(trifluoromethoxy)phenyl)-1H-1,2,4-triazol-3-yl)-2,3-dihydro-1H-inden-2-yl)urea], the mortality at 50 µg/cm2 in data set [1] and in data set [3] was 50 to 100% throughout. Also, in data set [2], the “YFM % Control (or Mortality) rating” value is “A (80-100)”.

On to `COc1ccc(NC(=S)NC(=O)NC2Cc3ccc(-c4ncn(-c5ccc(OC(F)(F)F)cc5)n4)cc3C2)c(C)c1` (stereo not drawn) [P1], for which the mortality at 50 µg/cm2 in data set [1] and in data set [3] was 50 to 100% each time. In addition, in data set [2], the “YFM % Control (or Mortality) rating” value is recorded as “A (80-100)”.

On to `CC(C)c1cc(F)ccc1NC(=S)NC(=O)NC1Cc2ccc(-c3ncn(-c4ccc(OC(F)(F)F)cc4)n3)cc2C1` (stereo not drawn) [P2, 1-[(4-Fluoro-2-isopropyl-phenyl)carbamothioyl]-3-[5-[1-[4-(trifluoromethoxy)phenyl]-1,2,4-triazol-3-yl]indan-2-yl]urea], for which the mortality at 50 µg/cm2 in data set [1] and in data set [3] was 50 to 100% in each case. In data set [2], the “YFM % Control (or Mortality) rating” value is reported as “A (80-100)”.

With `CC(C)c1ccc(Cl)cc1NC(=S)NC(=O)NC1Cc2ccc(-c3ncn(-c4ccc(OC(F)(F)F)cc4)n3)cc2C1` (stereo not drawn) [P3, 1-[(5-Chloro-2-isopropyl-phenyl)carbamothioyl]-3-[5-[1-[4-(trifluoromethoxy)phenyl]-1,2,4-triazol-3-yl]indan-2-yl]urea], the mortality at 50 µg/cm2 in data set [1] and in data set [3] was 50 to 100% in each case. Besides, the “YFM % Control (or Mortality) rating” value in data set [2] is listed as “A (80-100)”.

Take `COc1ccc(C(C)C)c(NC(=S)NC(=O)NC2Cc3ccc(-c4ncn(-c5ccc(OC(F)(F)F)cc5)n4)cc3C2)c1` (stereo not drawn) [P4, 1-[(2-Isopropyl-5-methoxy-phenyl)carbamothioyl]-3-[5-[1-[4-(trifluoromethoxy)phenyl]-1,2,4-triazol-3-yl]indan-2-yl]urea]: the mortality at 50 µg/cm2 in data set [1] and in data set [3] was 50 to 100% in each case. The “YFM % Control (or Mortality) rating” value in data set [2] is recorded as “A (80-100)”.

Regarding `Cc1ccc(NC(=S)NC(=O)NC2Cc3ccc(-c4ncn(-c5ccc(OC(F)(F)F)cc5)n4)cc3C2)c(C(C)C)c1` (stereo not drawn) [P5, 1-[(2-Isopropyl-4-methyl-phenyl)carbamothioyl]-3-[5-[1-[4-(trifluoromethoxy)phenyl]-1,2,4-triazol-3-yl]indan-2-yl]urea], the mortality at 50 µg/cm2 in data set [1] and in data set [3] was 50 to 100% throughout. In addition, the “YFM % Control (or Mortality) rating” value in data set [2] was “A (80-100)”.

Turning to `COc1ccc(N2C(=O)CS/C2=N\C(=O)NC2Cc3ccc(-c4ncn(-c5ccc(OC(F)(F)F)cc5)n4)cc3C2)c(C)c1` (stereo not drawn) [P6, (Z)-1-(3-(4-methoxy-2-methylphenyl)-4-oxothiazolidin-2-ylidene)-3-(5-(1-(4-(trifluoromethoxy)phenyl)-1H-1,2,4-triazol-3-yl)-2,3-dihydro-1H-inden-2-yl)urea], the mortality at 50 µg/cm2 in data set [1] and in data set [3] was 50 to 100% each time. For the same compound, in data set [2], the “YFM % Control (or Mortality) rating” value is given as “A (80-100)”.

Consider `Cc1ccc(N2C(=O)CS/C2=N\C(=O)NC2Cc3ccc(-c4ncn(-c5ccc(OC(F)(F)F)cc5)n4)cc3C2)c(C(C)C)c1` (stereo not drawn) [P7, (Z)-1-(3-(2-Isopropyl-4-methylphenyl)-4-oxothiazolidin-2-ylidene)-3-(5-(1-(4-(trifluoromethoxy)phenyl)-1H-1,2,4-triazol-3-yl)-2,3-dihydro-1H-inden-2-yl)urea], for which the mortality at 50 µg/cm2 in data set [1] and in data set [3] was 50 to 100% in each case. Besides, the “YFM % Control (or Mortality) rating” value in data set [2] was “A (80-100)”.

As for `CC(C)c1ccc(Cl)cc1N1C(=O)CS/C1=N\C(=O)NC1Cc2ccc(-c3ncn(-c4ccc(OC(F)(F)F)cc4)n3)cc2C1` (stereo not drawn) [P8, (Z)-1-(3-(5-Chloro-2-isopropylphenyl)-4-oxothiazolidin-2-ylidene)-3-(5-(1-(4-(trifluoromethoxy)phenyl)-1H-1,2,4-triazol-3-yl)-2,3-dihydro-1H-inden-2-yl)urea], the mortality at 50 µg/cm2 in data set [1] and in data set [3] was 50 to 100% in each case. Besides, the “YFM % Control (or Mortality) rating” value in data set [2] is listed as “A (80-100)”.

(Values after US9469617B2, “Molecules having certain pesticidal utilities, and intermediates, compositions, and processes related thereto” (priority 2014, dated 2016).)
